Entries after “also recorded” stand apart in the source; their conditions may differ. Where two headings read alike, the source gives them in different places.
How the values were obtained:
[1] = biological target: T1, mushroom tyrosinase (Agaricus bisporus, UniProt C7FF04); assay: Mushroom tyrosinase activity inhibition assay (L-tyrosine or L-dopa as substrate); type: biochemical; conditions: for IC50: mushroom tyrosinase, 37 °C, mean ± SEM of triplicates
T1 construct: purchased Sigma-Aldrich (St. Louis, MO, USA)
Description: 3.3. Tyrosinase Activity Assay Using Mushroom Tyrosinase
The tyrosinase inhibitory activity of the 2-phenylbenzoxazoles was evaluated using a mushroom tyrosinase activity assay, following a previously described method. An aqueous substrate mixture, consisting of phosphate buffer (pH 6.5; 17.2 mM) and L-tyrosine or L-dopa (345 μM), was prepared. A 96-well plate containing the test sample in dimethyl sulfoxide (DMSO) solution (10 μL), aqueous mushroom tyrosinase solution (20 μL; 200 units), and aqueous substrate mixture (170 μL) in each well was incubated at 37 °C for 15 min for L-dopa and 30 min for L-tyrosine, respectively.

[2] = tested on: B16F10 cells; assay: B16F10 cell viability assay (EZ-Cytox); type: cell-based, murine; conditions: 0, 1, 2, 5 μM
Description: Since the 2-phenylbenzoxazole compounds 3, 8, and 13 were identified as being potent mushroom tyrosinase inhibitors, they were used in B16F10-cell-based experiments. Before assessing the biological impact of compounds 3, 8, and 13 in the B16F10 cells, the effect of these compounds on B16F10 cell viability was evaluated. The cells were treated with the compounds at concentrations of 0, 1, 2, and 5 μM for 48 and 72 h, respectively.
3.7. B16F10 Cell Viability Assay
Test samples (3, 8, and 13) were added to each well at final concentrations of 0, 1, 2, and 5 μM and cultivated for 48 and 72 h, respectively. Each well was treated with 10 μL of EZ-Cytox solution (EZ-1000®, DoGenBio, Seoul, Republic of Korea) and cultivated for 2 h. The absorbance of each well was measured at 450 nm using an ELISA reader.

[3] = tested on: zebrafish larvae; assay: In vivo depigmentation experiment using zebrafish embryos
Description: Zebrafish embryos were used in this study. […] The zebrafish embryos were obtained through natural mating in our laboratory. The chorion of the zebrafish embryos was removed 24 h post-fertilization (hpf).
In Vivo Depigmentation Experiment Using Zebrafish Embryos
A depigmentation experiment was performed using zebrafish embryos, as previously described [38, 49, 50]. Wild-type zebrafish (Danio rerio) were maintained in a fish tank at 28 °C and fed with dried brine shrimp (Artemia salina, San Francisco Bay Brand, San Francisco, CA, USA) three times daily. The zebrafish embryos were obtained through natural mating in mating cages. The obtained zebrafish embryos were transferred to a 90 mm culture dish containing 200 μL of E3-methylene blue (MB) solution, consisting of 0.001% MB, 0.17 mM KCl, 0.33 mM CaCl2, 0.33 mM MgSO4, and 5 mM NaCl, and incubated in an incubator set at 28 °C. At 24 h post-fertilization (hpf), the zebrafish embryos were dechorionated using pronase (Sigma-Aldrich, St. Louis, MO, USA). […] The 48-well plates were incubated in an incubator set at 28 °C for 48 h. At 76 hpf, the zebrafish larvae were mounted on a 1% methylcellulose block after anesthesia with tricaine methanesulfonate (Thermo Fisher Scientific, Waltham, MA, USA), and photographs of the zebrafish larvae were obtained using a SMZ745T stereoscopic microscope (Nikon, Tokyo, Japan). The pigmented areas of the zebrafish larvae were determined using the CS analyzer 3.0 image analysis software (ATTO, Tokyo, Japan).

[4] = tested on: zebrafish larvae; assay: Melanin content in zebrafish larvae; type: in vivo, zebrafish (Danio rerio); conditions: compound 8 0.025 mM; kojic acid 20 mM; treated 28 hpf, read 74 hpf
Description: (§1) . Zebrafish embryos obtained by natural mating were dechorionated at 24 hpf and treated with compound 8 (0.025 mM) or kojic acid (20 mM) at 28 hpf. After 46 h, the melanin content and tyrosinase activity were determined.
(§2) 3.13. Measurement of Melanin Content and Tyrosinase Activity in Zebrafish Larvae
(§3) The effects of the 2-phenylbenzo[d]oxazole compound 8 on the melanin content and tyrosinase activity in the zebrafish larvae were assessed using a previously defined procedure with minor modifications. To quantify the melanin content in the zebrafish larvae, zebrafish embryos were obtained through natural mating and operated in a similar manner to the in vivo depigmentation experiment (25 zebrafish embryos per well in a 24-well plate; dechorionation at 24 hpf; test sample treatment (8 [0.025 mM] and kojic acid [20 mM; positive control]) at 28 hpf). Melanin quantification and tyrosinase activity were quantified at 74 hpf. For melanin quantification, the zebrafish larvae were lysed in RIPA buffer (Biosesang, Gyeonggi-do, Korea) and homogenized using a sonicator. […] The absorbance was measured at 405 nm using a microplate reader. For the tyrosinase activity measurement, the supernatants were transferred to new Eppendorf tubes and the protein was quantified using a Pierce BCA protein assay kit, with the absorbance being measured at 570 nm using a microplate reader. […]

[5] = tested on: tyrosinase activity in zebrafish larvae; assay: Tyrosinase activity in zebrafish larvae; type: in vivo, zebrafish (Danio rerio); conditions: compound 8 0.025 mM; kojic acid 20 mM; treated 28 hpf, read 74 hpf
Description: as §1, §2, §3

[6] = substrate L-dopa, 15 min, read-out: IC50 Values, L-Dopa
[7] = substrate L-tyrosine, 30 min, read-out: IC50 Values, L-Tyrosine
[8] = kojic acid 20 mM, compound 8 0.025 mM, compound 13 0.025 and 0.05 mM, 76 hpf

T1 sequence (C7FF04 1-392 limits assumed): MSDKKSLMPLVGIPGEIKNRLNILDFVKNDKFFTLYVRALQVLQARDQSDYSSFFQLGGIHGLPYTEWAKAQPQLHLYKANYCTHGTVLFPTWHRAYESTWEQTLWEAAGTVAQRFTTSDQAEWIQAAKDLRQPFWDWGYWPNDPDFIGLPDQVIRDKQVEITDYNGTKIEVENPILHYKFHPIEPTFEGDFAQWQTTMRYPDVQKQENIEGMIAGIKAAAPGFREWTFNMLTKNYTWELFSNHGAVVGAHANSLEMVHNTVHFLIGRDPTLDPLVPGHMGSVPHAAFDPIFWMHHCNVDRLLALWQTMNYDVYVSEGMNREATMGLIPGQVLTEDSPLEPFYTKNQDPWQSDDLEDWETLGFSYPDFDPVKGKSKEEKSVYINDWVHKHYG

Row | IC50 [1, 6] | IC50 [1, 7] | tyrosinase potency relative to kojic acid ([1]; substrate L-tyrosine) | SMILES | cytotoxicity to B16F10 cells, 48 h [2] | cytotoxicity to B16F10 cells, 72 h [2] | depigmentation effect on zebrafish larvae (photographs) [3, 8] | melanin content of zebrafish larvae, vs untreated control (100%) [4] | % tyrosinase activity in zebrafish larvae, vs untreated control (100%) [5] | toxicity in zebrafish embryos ([3]; 0.05 mM) | pigmentation area of zebrafish larvae (CS analyzer) [3, 8]
1 | 20.8 ± 1.02 µM | 3.5 ± 0.07 µM |  | Cc1ccc2oc(-c3ccc(O)cc3O)nc2c1 [Compound 13, 4-(5-Methylbenzo[d]oxazol-2-yl)benzene-1,3-diol] | not cytotoxic | did not show cytotoxicity | substantially higher depigmentation effects on zebrafish larvae than kojic acid; also recorded: significantly stronger depigmentation efficacy than kojic acid |  |  |  | 
2 | 16.8 ± 0.57 µM | 0.51 µM | 28 times | Cc1ccc2nc(-c3ccc(O)cc3O)oc2c1 [Compound 3, 4-(6-Methylbenzo[d]oxazol-2-yl)benzene-1,3-diol] | not cytotoxic | weak cytotoxicity at the highest concentration tested |  |  |  |  | 

Row | SMILES | IC50 [1, 6] | IC50 [1, 7] | tyrosinase potency relative to kojic acid ([1]; substrate L-tyrosine) | cytotoxicity to B16F10 cells, 48 h [2] | cytotoxicity to B16F10 cells, 72 h [2] | depigmentation effect on zebrafish larvae (photographs) [3, 8] | melanin content of zebrafish larvae, vs untreated control (100%) [4] | % tyrosinase activity in zebrafish larvae, vs untreated control (100%) [5] | toxicity in zebrafish embryos ([3]; 0.05 mM) | pigmentation area of zebrafish larvae (CS analyzer) [3, 8]
3 | Oc1ccc(-c2nc3ccc(Cl)cc3o2)c(O)c1 [Compound 8, 4-(6-Chlorobenzo[d]oxazol-2-yl)benzene-1,3-diol] | 20.4 ± 1.99 µM | 2.22 ± 0.16 µM |  | not cytotoxic | did not show cytotoxicity | substantially higher depigmentation effects on zebrafish larvae than kojic acid; also recorded: strong potency at 0.025 mM, similar to 13 at 0.05 mM | 35% | 29% | weak toxicity | smallest pigmentation area

Source: paper PMC11396935, “Exploration of Compounds with 2-Phenylbenzo[d]oxazole Scaffold as Potential Skin-Lightening Agents through Inhibition of Melanin Biosynthesis and Tyrosinase Activity” (Molecules, 2024)
